From patent US20260325654A1, “METHODS AND COMPOSITIONS FOR TARGETED PROTEIN DEGRADATION” (Ranok Therapeutics (Hangzhou) Co. Ltd., priority 2023, published 2026)
Where a name gives a salt, the structure may show the parent alone.

Assays:
[1] = system: AGS; experiment: CellTiter-Glo Reagent cancer cell line proliferation assay, AGS; type: cell-based, human; details: Homo sapiens, 24 h, KRAS(G12D) heterozygous
Outline: (§1)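 Cells were seeded at 4,000 per well, grown 24 hr at 37° C./5% CO2, then exposed 24 hr to 3-fold dilutions from 20 μM to 1.02 nM (0.5% DMSO final). Viability was read with CellTiter-Glo luminescence, and IC50 values were calculated.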

[2] = system: SW1990; experiment: CellTiter-Glo Reagent cancer cell line proliferation assay, SW1990; type: cell-based; details: Homo sapiens; SW1990, KRAS(G12D) homozygous, 24 hr
Source text: (§2) The following cancer cell lines were employed: • AsPC-1 human pancreatic adenocarcinoma, homozygous KRAS(G12D), (ATCC, #CRL-1682); A-427 human lung carcinoma, heterozygous KRAS(G12D), (ATCC, #HTB-53); AGS human gastric adenocarcinoma, heterozygous KRAS(G12D), (ATCC, #CRL-1739); GP2D human colon adenocarcinoma, heterozygous KRAS(G12D), (Sigma Aldrich, 95090714); SW1990 human pancreatic adenocarcinoma, homozygous KRAS(G12D), (ATCC, #CRL2172); LU65A human lung giant cell carcinoma, heterozygous KRAS(G12C), (JCRB Cell Bank, #JCRB0054); NCIH727 human lung carcinoid, heterozygous KRAS(G12V), (ATCC, #CRL-5815); MKN1 human gastric adenosquamous carcinoma KRAS (wt), (JCRB Cell Bank, #JCRB0252). Cell lines were cultured according to ATCC, JCRB and Sigma Aldrich recommendations.
(§3) Cells were plated in 96-well tissue culture plates at 4,000 cells/well and incubated at 37° C./5% CO2 for 24 hr in 100 μl of media. 3-fold serial dilutions of each test compound were prepared ranging from 20 μM to 1.02 nM. Cells were then treated with test compounds at various concentrations with a final concentration of 0.5% DMSO/well, and then incubated at 37° C./5% CO2 for 24 hr. 100 μl of CellTiter-Glo® Reagent (Promega Corporation, Madison, WI) was added to each well and processed according manufacturer's protocol. Results were analyzed and IC50-values were calculated in GraphPad 7 software.

[3] = system: GP2D; experiment: CellTiter-Glo Reagent cancer cell line proliferation assay, GP2D; type: cell-based; details: Homo sapiens, KRAS(G12D) heterozygous, 24 hr
Outline: as §1

[4] = target: T1, KRAS(G12D) (Homo sapiens, UniProt P01116, G12D); experiment: cell-based; type: cell-based; set-up: Cell lines SW1990 and GP2D that express KRAS(G12D); host or cells: SW1990; details: for Dmax: SW1990, read-out: WB data SW1990 DMax; for DC50: read-out: WB data SW1990 DC50, SW1990, KRAS degradation, 24 hr
Experimental: Cell lines were cultured according to ATCC, JCRB and Sigma Aldrich recommendations.
(§4) Cells were then washed with cold PBS, aspirated and cold RIPA buffer containing a protease/phosphatase inhibitor cocktail was added to lyse cells. After centrifugation, the total protein concentrations of cell lysates were determined using the BCA protein assay. Samples were normalized for equivalent protein concentrations, 5× SDS-PAGE loading buffer added and denatured at 100° C. for 10 min. 20 μl of each sample/well was loaded on a SDS-PAGE gel and electrophoresed for 20 min at 80 V, then 120 V for 1.5 hr. Gels were then electroblotted to nitrocellulose membranes using a wet-transfer method at 250 mA for 2.5 hr. Membranes were incubated with blocking buffer for 1 hr and washed 3 times with TBST for 5 min. Membranes were then incubated with anti-KRAS (Sigma-Aldrich, #SAB1404011) and anti-β-Actin monoclonal antibodies (Cell Signaling Technology, #3700) diluted in blocking buffer at 4° C. overnight per the manufacturer's recommendations. After washing 3 times, blots were incubated with appropriately labeled secondary antibodies for 1 hr at room temperature and washed again. Fluorescence imaging and quantitation was performed using a LI-COR Odyssey. Results was analyzed using GraphPad Prism 7 software. Compound concentrations that induced KRAS degradation (DC50 and DCmax) were calculated using GraphPad Prism 7 software.
Target sequence in this assay (P01116 1-188 isoform P01116-2 G12D): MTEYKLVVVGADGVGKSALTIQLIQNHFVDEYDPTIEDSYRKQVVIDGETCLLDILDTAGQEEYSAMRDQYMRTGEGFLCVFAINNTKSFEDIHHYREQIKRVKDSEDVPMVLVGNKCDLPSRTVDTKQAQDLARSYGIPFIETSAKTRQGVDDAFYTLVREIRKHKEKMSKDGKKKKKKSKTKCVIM

[5] = target: T1, KRAS(G12D); experiment: KRAS Western Blot Protein Degradation Assay, GP2D; type: cell-based; set-up: Cell lines SW1990 and GP2D that express KRAS(G12D); host or cells: GP2D; details: for Dmax: GP2d, read-out: WB data GP2D DMax; for DC50: read-out: WB data GP2D DC50, GP2D, KRAS degradation, 24 hr
Source text: as §2
as §4, with “Cell lines SW1990 and GP2D that express KRAS(G12D), LU65A that expresses KRAS(G12C), and NCIH727 that expresses KRAS(G12V) were seeded in 6- or 12-well tissue culture plates, and after 1 hr, test compounds were added at various concentrations and incubated at 37° C./5% CO2 for 24 hr. Cells” for “Cells”
Target sequence in this assay (P01116 1-185 isoform P01116-2 G12D limits assumed): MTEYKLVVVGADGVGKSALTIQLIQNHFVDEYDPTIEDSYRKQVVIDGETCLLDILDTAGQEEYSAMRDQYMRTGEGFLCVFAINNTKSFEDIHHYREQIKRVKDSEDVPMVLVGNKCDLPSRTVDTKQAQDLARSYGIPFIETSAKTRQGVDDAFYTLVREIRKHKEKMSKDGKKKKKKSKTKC

[6] = system: A427; experiment: CellTiter-Glo Reagent cancer cell line proliferation assay, A427; type: cell-based; details: Homo sapiens, A-427; A427, KRAS(G12D) heterozygous, 24 hr
Source text: as §2, §3

[7] = system: ASPC-1; experiment: CellTiter-Glo Reagent cancer cell line proliferation assay, ASPC-1; type: cell-based; details: Homo sapiens, ASPC1; ASPC-1, KRAS(G12D) homozygous, 24 hr
Source text: as §2, §3

| SMILES | IC50 [1] [µM] | IC50 [2] [µM] | IC50 [3] [µM] | Dmax [4] [%] | DC50 [4] [µM] | Dmax [5] [%] | DC50 [5] [µM] | IC50 [6] [µM] | IC50 [7] [µM] |
| --- | --- | --- | --- | --- | --- | --- | --- | --- | --- |
| C#Cc1c(F)ccc2cc(O)cc(-c3ncc4c(N5CC6CCC(C5)N6)nc(OCC5(CN6CCN(CC#Cc7ccc8c(c7)CN(C7CCC(=O)NC7=O)C8=O)CC6)CC5)nc4c3F)c12 (centres unmarked) [Compound 89] | < 0.1 | 0.1 to 1 | < 0.1 | 10 to 50 | > 1 | – | – | – | – |
| O=CO.[2H]C([2H])([2H])Oc1nc(-c2cc(O)cc3ccc(F)c(C#C)c23)c(F)c2nc(OCC3(CN4CCN(CC5CCN(c6ccc7c(c6)CN(C6CCC(=O)NC6=O)C7=O)CC5)CC4)CC3)nc(N3CC4CCC(C3)N4CCC#N)c12 (centres unmarked) [Compound 95] | 0.1 to 1 | – | < 0.1 | – | – | < 10 | > 1 | – | – |
| O=CO.[2H]C([2H])([2H])Oc1nc(-c2cc(O)cc3ccc(F)c(C#C)c23)c(F)c2nc(OCC3(CN4CCN(CC5CCN(c6ccc7c(c6)CN(C6CCC(=O)NC6=O)C7=O)CC5)CC4)CC3)nc(N3CC4CCC(C3)N4CC#N)c12 (centres unmarked) [Compound 94] | < 0.1 | – | < 0.1 | – | – | > 50 | < 0.1 | – | – |
| C#Cc1cccc2cc(O)cc(-c3ncc4c(N5CC6CCC(C5)N6)nc(OCC5(CN6CCN(C(=O)C7CCN(c8ccc9c(c8)CN(C8CCC(=O)NC8=O)C9=O)CC7)CC6)CC5)nc4c3F)c12 (centres unmarked) [Compound 58] | < 0.1 | 0.1 to 1 | – | – | – | – | – | > 1 | 0.1 to 1 |
| O=C1CCC(N2C(=O)c3ccc(CN4CCN([C@H]5CN6CCCC6(COc6nc(N7CC8CCC(C7)N8)c7cnc(-c8cc(O)cc9ccccc89)c(F)c7n6)C5)CC4)cc3C2=O)C(=O)N1 (some centres unmarked) [Compound 20] | > 1 | – | – | – | – | – | – | > 1 | > 1 |
| [2H]C([2H])([2H])Oc1nc(-c2cc(O)cc3ccc(F)c(C#C)c23)c(F)c2nc(OCC3(CN4CCN(CC5CCN(c6ccc7c(c6)CN(C6CCC(=O)NC6=O)C7=O)CC5)CC4)CC3)nc(N3CC4CCC(C3)N4CC(C)C)c12 (centres unmarked) [Compound 96] | > 1 | – | 0.1 to 1 | – | – | 10 to 50 | > 1 | – | – |
| [2H]C([2H])([2H])Oc1nc(-c2cc(O)cc3ccc(F)c(C#C)c23)c(F)c2nc(OCC3(CN4CCN(CC5CCN(c6ccc7c(c6)CN(C6CCC(=O)NC6=O)C7=O)CC5)CC4)CC3)nc(N3CC4CCC(C3)N4CC(F)(F)F)c12 (centres unmarked) [Compound 97] | 0.1 to 1 | – | 0.1 to 1 | – | – | 10 to 50 | > 1 | – | – |
| CN1C[C@H](N2CCC(C(=O)NCCOCCOc3ccc4c(c3)C(=O)N(C3CCC(=O)NC3=O)C4=O)CC2)C[C@@H]1COc1nc(N2CC3CCC(C2)N3)c2cnc(-c3cc(O)cc4ccccc34)c(F)c2n1 (some centres unmarked) [Compound 24] | > 1 | – | – | – | – | – | – | > 1 | – |
| O=CO.[2H]C([2H])([2H])Oc1nc(-c2cc(O)cc3ccc(F)c(C#C)c23)c(F)c2nc(OCC3(CN4CCN(CC5CCN(c6ccc7c(c6)CN(C6CCC(=O)NC6=O)C7=O)CC5)CC4)CC3)nc(N3CC4CCC(C3)N4CCO)c12 (centres unmarked) [Compound 98] | < 0.1 | – | < 0.1 | – | – | > 50 | < 0.1 | – | – |
| C#Cc1c(F)ccc2cc(O)cc(-c3ncc4c(N5CC6CCC(C5)N6)nc(OCC5(CN6CCN(CC7CCN(c8ccc9c(=O)n(C%10CCC(=O)NC%10=O)ncc9c8)CC7)CC6)CC5)nc4c3F)c12 (centres unmarked) [Compound 88] | < 0.1 | < 0.1 | < 0.1 | 10 to 50 | > 1 | – | – | – | – |
| C#Cc1c(F)ccc2cc(O)cc(-c3nc(OC)c4c(N5CC6CCC(C5)N6CC#N)nc(OCC5(CN6CCN(CC7CCN(c8ccc9c(c8)CN(C8CCC(=O)NC8=O)C9=O)CC7)CC6)CC5)nc4c3F)c12 (centres unmarked) [Compound 100, 2-(3-(2-((1-((4-((1-(2-(2,6-dioxopiperidin-3-yl)-1-oxoisoindolin-5-yl)piperidin-4-yl)methyl)piperazin-1-yl)methyl)cyclopropyl)methoxy)-7-(8-ethynyl-7-fluoro-3-hydroxynaphthalen-1-yl)-8-fluoro-5-methoxypyrido[4,3-d]pyrimidin-4-yl)-3,8-diazabicyclo[3.2.1]octan-8-yl) acetonitrile formate] | < 0.1 | – | < 0.1 | – | – | > 50 | < 0.1 | – | – |
| C#Cc1cccc2cccc(-c3ncc4c(N5CC6CCC(C5)N6)nc(OC[C@H]5C[C@@H](N6CCN(CC7CCC(Nc8ccc9c(c8)C(=O)N(C8CCC(=O)NC8=O)C9=O)CC7)CC6)CN5C)nc4c3F)c12 (some centres unmarked) [Compound 47] | > 1 | > 1 | – | – | – | – | – | > 1 | > 1 |
| C#Cc1cccc2cc(O)cc(-c3ncc4c(N5CC6CCC(C5)N6C(=O)C(F)(F)F)nc(OCC5(CN6CCN(CC7CCN(c8ccc9c(c8)CN(C8CCC(=O)NC8=O)C9=O)CC7)CC6)CC5)nc4c3F)c12 (centres unmarked) [Compound 57] | < 0.1 | 0.1 to 1 | – | 10 to 50 | > 1 | – | – | 0.1 to 1 | 0.1 to 1 |
| C#Cc1c(F)ccc2cc(O)cc(-c3ncc4c(N5CC6CCC(C5)N6CC#N)nc(OCC5(CN6CCN(CC7CCN(c8ccc9c(c8)CN(C8CCC(=O)NC8=O)C9=O)CC7)CC6)CC5)nc4c3F)c12 (centres unmarked) [Compound 101] | < 0.1 | – | < 0.1 | – | – | > 50 | < 0.1 | – | – |
| C#Cc1c(F)ccc2cc(O)cc(-c3ncc4c(N5C[C@H]6CC[C@@H](C5)N6)nc(OCC5(CN6CC(C#Cc7ccc8c(c7)CN(C7CCC(=O)NC7=O)C8=O)C6)CC5)nc4c3F)c12 (stereo partly drawn) [Compound 90, 3-(5-((1-((1-(((4-((1R,5S)-3,8-diazabicyclo[3.2.1]octan-3-yl)-7-(8-ethynyl-7-fluoro-3-hydroxynaphthalen-1-yl)-8-fluoropyrido[4,3-d]pyrimidin-2-yl)oxy)methyl)cyclopropyl)methyl)azetidin-3-yl)ethynyl)-1-oxoisoindolin-2-yl) piperidine-2,6-dione formate] | < 0.1 | < 0.1 | < 0.1 | 10 to 50 | > 1 | – | – | – | – |
